According to ChEMBL document CHEMBL1201862, “PubChem BioAssay data set” (2004):
Active and inactive are the calls of the source.

Experiments:
[1] = viability of PTEN-deleted HCT116 cells – cell-based, HCT116 PTEN knockout, dose response (AID 1047); assay type: functional;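 note: HCT116 colon tumor cells with PTEN knocked out; cells exposed to compound for 60 hours before readout; potency for loss of cell viability measured by luminescence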
Beta-galactosidase = Beta-galactosidase (Escherichia coli, UniProt Q8VNN2); test: detection-enzyme interference by beta-gal modulators – biochemical, E. coli enzyme, set 3, artefact control for CCR6 antagonist project, dose response (AID 504712); assay type: functional
[2] = viability of HCT116 lacking mutant beta-catenin – cell-based, human colon tumor, dose response (AID 1045); assay type: functional;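 note: HCT116 colon tumor cells with beta catenin knocked out; cells exposed to compound for 60 hours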
Cytochrome P450 3A4 = Cytochrome P450 3A4 (Homo sapiens, UniProt P08684); settings: Potency;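 note: confirmatory qHTS run detecting inhibitors and substrates of CYP3A4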
[3] = A cytotoxicity screen of small molecule inhibitors of the PhoP region in Salmonella typhi identified in the primary screen. [Related pubchem assays: 1850, 1864, 1985 ]; assay type: functional
Bcl-2-like protein 10 = target: T1, Bcl-2-like protein 10 (Homo sapiens, UniProt Q9HD36); test: Bcl-B/TR3 peptide binding disruption – biochemical, fluorescence polarization, FITC-TR3 peptide, selectivity assay for Bfl-1 inhibitor project, primary screen (AID 748);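 note: fluorescence polarization from a fluorescein-labelled TR3 peptide binding purified Bcl-B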
T1 sequence (Q9HD36 whole entry): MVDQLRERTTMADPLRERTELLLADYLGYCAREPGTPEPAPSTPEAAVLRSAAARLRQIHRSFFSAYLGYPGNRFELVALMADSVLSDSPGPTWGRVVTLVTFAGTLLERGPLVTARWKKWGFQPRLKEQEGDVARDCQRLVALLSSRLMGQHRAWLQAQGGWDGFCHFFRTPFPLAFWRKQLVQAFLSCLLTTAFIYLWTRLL

[4] = target: T2, E3 ubiquitin-protein ligase XIAP (Homo sapiens, UniProt P98170); test: Counter Screen using XIAP-Bir3 for Chemical Antagonists of Bir1/2 domains of IAP-family anti-apoptotic proteins. [Related pubchem assays (depositor defined):AID1018, AID1449, AID1514, AID1638, AID1749, AID1750, AID488957, AID488963]
[5] = target: T2, E3 ubiquitin-protein ligase XIAP; test: small molecules displacing peptide from XIAP – biochemical, IAP family, fluorescence polarization (AID 1018); assay type: functional
[6] = target: DNA dC->dU-editing enzyme APOBEC-3G (Homo sapiens, UniProt Q9HC16); test: Dose Response confirmation of small molecule APOBEC3G DNA Deaminase Inhibitors via a fluorescence-based single-stranded DNA deaminase assay. [Related pubchem assays (depositor defined):AID493012, AID493028]; assay type: functional
[7] = target: DNA dC->dU-editing enzyme APOBEC-3A (Homo sapiens, UniProt P31941); test: A3A deaminase inhibition for selectivity – biochemical, dose response (AID 504722); assay type: functional
Nonstructural protein 1 = Nonstructural protein 1 (Influenza A virus, UniProt Q194T2); assay type: functional, Influenza A virus (A/California/07/2009(H1N1))
[8] = target: T3, Heat shock factor protein 1 (Mus musculus, UniProt P38532); test: decrease of HSF1-responsive luciferase luminescence – cell-based, NIH3T3, dose retest, confirmation (AID 2382); assay type: functional;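 note: NIH3T3 fibroblasts with HSF1-driven luciferase reporter stressed by proteasome inhibitor MG132; luminescence from HSF1-driven luciferase expression after 8 hours of MG132 stress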
T3 sequence (P38532 whole entry): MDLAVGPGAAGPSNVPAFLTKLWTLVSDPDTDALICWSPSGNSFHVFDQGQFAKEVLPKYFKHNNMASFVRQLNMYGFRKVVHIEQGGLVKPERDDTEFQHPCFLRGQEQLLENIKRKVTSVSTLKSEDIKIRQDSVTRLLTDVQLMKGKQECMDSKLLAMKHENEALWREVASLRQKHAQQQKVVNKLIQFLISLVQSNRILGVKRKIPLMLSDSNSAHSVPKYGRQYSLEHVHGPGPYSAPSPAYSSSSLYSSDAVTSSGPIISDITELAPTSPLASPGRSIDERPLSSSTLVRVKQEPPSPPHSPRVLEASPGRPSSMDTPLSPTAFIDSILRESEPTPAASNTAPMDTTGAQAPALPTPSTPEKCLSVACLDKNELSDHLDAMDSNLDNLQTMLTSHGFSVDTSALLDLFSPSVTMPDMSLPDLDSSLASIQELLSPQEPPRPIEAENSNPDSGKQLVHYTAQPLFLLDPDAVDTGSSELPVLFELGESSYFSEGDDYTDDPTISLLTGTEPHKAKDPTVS

[9] = target: T4, Acyl-homoserine lactone acylase PvdQ (Pseudomonas aeruginosa (strain LESB58), UniProt Q9I194); test: PvdQ acylase enzyme activity blockers – biochemical, fluorescence, plate reader and imaging, cherry-picks, dose response (AID 493231)
T4 sequence (Q9I194 whole entry): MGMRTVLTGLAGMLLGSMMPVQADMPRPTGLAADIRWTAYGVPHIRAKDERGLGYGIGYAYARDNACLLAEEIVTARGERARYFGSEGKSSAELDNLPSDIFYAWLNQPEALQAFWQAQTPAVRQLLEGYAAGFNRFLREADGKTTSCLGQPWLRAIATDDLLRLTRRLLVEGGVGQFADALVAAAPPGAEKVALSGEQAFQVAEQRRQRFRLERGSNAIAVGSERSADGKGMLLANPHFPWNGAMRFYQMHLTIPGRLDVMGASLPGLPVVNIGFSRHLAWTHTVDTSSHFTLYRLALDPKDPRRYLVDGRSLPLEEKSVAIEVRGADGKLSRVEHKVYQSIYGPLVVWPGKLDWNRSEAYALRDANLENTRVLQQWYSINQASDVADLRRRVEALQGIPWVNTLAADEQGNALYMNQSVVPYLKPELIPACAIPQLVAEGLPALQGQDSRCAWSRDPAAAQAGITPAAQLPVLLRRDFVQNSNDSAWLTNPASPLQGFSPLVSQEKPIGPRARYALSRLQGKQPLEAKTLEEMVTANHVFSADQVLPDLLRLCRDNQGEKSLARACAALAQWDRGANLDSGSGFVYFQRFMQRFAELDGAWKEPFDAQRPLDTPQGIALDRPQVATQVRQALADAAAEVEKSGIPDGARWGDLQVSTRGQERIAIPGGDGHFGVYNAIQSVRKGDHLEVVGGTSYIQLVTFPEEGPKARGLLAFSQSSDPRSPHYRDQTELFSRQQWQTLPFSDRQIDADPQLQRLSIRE

SUMO-activating enzyme [10] = target: T5, SUMO-activating enzyme (Homo sapiens, UniProt Q9UBT2); test: blockers of SAE1/SAE2–UBC9 SUMO transfer – biochemical, HTRF, uHTS, primary screen (AID 2006); assay type: protein-complex assay
SUMO-activating enzyme [11] = target: T5, SUMO-activating enzyme; test: blockers of UBC9-mediated SUMO conjugation – biochemical, AlphaScreen, SUMOylation inhibitor project, confirmation (AID 2018); assay type: functional
Cytochrome P450 2C9 = Cytochrome P450 2C9 (Homo sapiens, UniProt P11712)
[12] = target: T6, Voltage-gated N-type calcium channel alpha-1B subunit/Amyloid beta A4 precursor protein-binding family A member 1 (Homo sapiens, UniProt Q00975+Q02410); assay type: protein assay
[13] = target: T6, Voltage-gated N-type calcium channel alpha-1B subunit/Amyloid beta A4 precursor protein-binding family A member 1; assay type: protein assay; remark: listed apart in the source
[14] = Trypanosoma cruzi growth suppression in host cells – NIH3T3 host cells, beta-gal luminescence, confirmation (AID 2044); assay type: functional, cell-based;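 note: intracellular parasites grown in NIH/3T3 mouse fibroblasts as host cells; luminescent beta-galactosidase reporter signal from transgenic T. cruzi replicating inside host cells; inhibitors lower the luminescence signal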
[15] = target: Induced myeloid leukemia cell differentiation protein Mcl-1 (Homo sapiens, UniProt Q07820); assay type: functional
[16] = NIH3T3 cell viability loss – ATP luminescence, mouse fibroblasts, counter-screen, dose response (AID 2010); assay type: functional, cell-based;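 note: cells exposed to compound for about 90 hours before reading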
[17] = HEK-293T cell viability reduction – luminescence, B-cell screen hits, cytotoxicity control for BCR NF-kB inhibitor project, dose response (AID 489021); assay type: functional, cell-based;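 note: HEK-293T cells carrying an NF-kB luciferase reporter; cells exposed to compound for about 14 hours before viability readout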
HEK293 = test: EBV LMP1 TES2 canonical NF-kB signalling blockers – cell-based, HEK293, luciferase, cherry-pick, dose response (AID 588343); assay type: functional; settings: Homo sapiens
[18] = target: Heat shock protein HSP 90-alpha (Homo sapiens, UniProt P07900); assay type: functional, organism-based
[19] = target: Glucose-6-phosphate 1-dehydrogenase (Homo sapiens, UniProt P11413); test: inhibition of Homo sapiens G6PD, dose series – biochemical, fluorescence, selectivity assay for P. falciparum G6PD inhibitor project, dose response (AID 504792); assay type: functional
[20] = target: Glyceraldehyde-3-phosphate dehydrogenase (Homo sapiens, UniProt P04406)
Hexokinase = target: T7, Hexokinase (Trypanosoma brucei, UniProt Q38C41); test: Confirmation assay for inhibitors of Trypanosoma brucei hexokinase 1-Analogue-first series. [Related pubchem assays (depositor defined):AID1430, AID1632, AID2516, AID2560, AID2579, AID2600, AID449725, AID492951]; assay type: functional
T7 sequence (Q38C41 whole entry): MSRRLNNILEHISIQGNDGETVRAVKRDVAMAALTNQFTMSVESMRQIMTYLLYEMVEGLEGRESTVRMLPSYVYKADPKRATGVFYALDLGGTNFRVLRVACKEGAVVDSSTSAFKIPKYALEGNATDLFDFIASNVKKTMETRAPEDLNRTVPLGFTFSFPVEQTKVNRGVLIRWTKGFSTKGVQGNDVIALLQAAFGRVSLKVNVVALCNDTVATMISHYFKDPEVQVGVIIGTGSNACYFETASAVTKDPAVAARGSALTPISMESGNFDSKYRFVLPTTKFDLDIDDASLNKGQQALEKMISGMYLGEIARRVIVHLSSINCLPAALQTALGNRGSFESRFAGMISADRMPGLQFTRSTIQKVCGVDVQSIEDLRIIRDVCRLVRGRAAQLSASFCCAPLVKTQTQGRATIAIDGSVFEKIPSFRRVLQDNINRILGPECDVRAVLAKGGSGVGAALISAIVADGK

[21] = target: FAD-linked sulfhydryl oxidase ALR (Homo sapiens, UniProt P55789); test: ALR-catalysed DTT oxidation blockers – biochemical, H2O2 detection, luminescence, cherry-pick, dose response (AID 493248)
Genome polyprotein = Genome polyprotein (dengue virus type 2, UniProt P29990); test: flavivirus cap methylation enzyme inhibition – biochemical, confirmation dose response, primary screen (AID 588689); assay type: functional

T6 sequence (Q00975 whole entry): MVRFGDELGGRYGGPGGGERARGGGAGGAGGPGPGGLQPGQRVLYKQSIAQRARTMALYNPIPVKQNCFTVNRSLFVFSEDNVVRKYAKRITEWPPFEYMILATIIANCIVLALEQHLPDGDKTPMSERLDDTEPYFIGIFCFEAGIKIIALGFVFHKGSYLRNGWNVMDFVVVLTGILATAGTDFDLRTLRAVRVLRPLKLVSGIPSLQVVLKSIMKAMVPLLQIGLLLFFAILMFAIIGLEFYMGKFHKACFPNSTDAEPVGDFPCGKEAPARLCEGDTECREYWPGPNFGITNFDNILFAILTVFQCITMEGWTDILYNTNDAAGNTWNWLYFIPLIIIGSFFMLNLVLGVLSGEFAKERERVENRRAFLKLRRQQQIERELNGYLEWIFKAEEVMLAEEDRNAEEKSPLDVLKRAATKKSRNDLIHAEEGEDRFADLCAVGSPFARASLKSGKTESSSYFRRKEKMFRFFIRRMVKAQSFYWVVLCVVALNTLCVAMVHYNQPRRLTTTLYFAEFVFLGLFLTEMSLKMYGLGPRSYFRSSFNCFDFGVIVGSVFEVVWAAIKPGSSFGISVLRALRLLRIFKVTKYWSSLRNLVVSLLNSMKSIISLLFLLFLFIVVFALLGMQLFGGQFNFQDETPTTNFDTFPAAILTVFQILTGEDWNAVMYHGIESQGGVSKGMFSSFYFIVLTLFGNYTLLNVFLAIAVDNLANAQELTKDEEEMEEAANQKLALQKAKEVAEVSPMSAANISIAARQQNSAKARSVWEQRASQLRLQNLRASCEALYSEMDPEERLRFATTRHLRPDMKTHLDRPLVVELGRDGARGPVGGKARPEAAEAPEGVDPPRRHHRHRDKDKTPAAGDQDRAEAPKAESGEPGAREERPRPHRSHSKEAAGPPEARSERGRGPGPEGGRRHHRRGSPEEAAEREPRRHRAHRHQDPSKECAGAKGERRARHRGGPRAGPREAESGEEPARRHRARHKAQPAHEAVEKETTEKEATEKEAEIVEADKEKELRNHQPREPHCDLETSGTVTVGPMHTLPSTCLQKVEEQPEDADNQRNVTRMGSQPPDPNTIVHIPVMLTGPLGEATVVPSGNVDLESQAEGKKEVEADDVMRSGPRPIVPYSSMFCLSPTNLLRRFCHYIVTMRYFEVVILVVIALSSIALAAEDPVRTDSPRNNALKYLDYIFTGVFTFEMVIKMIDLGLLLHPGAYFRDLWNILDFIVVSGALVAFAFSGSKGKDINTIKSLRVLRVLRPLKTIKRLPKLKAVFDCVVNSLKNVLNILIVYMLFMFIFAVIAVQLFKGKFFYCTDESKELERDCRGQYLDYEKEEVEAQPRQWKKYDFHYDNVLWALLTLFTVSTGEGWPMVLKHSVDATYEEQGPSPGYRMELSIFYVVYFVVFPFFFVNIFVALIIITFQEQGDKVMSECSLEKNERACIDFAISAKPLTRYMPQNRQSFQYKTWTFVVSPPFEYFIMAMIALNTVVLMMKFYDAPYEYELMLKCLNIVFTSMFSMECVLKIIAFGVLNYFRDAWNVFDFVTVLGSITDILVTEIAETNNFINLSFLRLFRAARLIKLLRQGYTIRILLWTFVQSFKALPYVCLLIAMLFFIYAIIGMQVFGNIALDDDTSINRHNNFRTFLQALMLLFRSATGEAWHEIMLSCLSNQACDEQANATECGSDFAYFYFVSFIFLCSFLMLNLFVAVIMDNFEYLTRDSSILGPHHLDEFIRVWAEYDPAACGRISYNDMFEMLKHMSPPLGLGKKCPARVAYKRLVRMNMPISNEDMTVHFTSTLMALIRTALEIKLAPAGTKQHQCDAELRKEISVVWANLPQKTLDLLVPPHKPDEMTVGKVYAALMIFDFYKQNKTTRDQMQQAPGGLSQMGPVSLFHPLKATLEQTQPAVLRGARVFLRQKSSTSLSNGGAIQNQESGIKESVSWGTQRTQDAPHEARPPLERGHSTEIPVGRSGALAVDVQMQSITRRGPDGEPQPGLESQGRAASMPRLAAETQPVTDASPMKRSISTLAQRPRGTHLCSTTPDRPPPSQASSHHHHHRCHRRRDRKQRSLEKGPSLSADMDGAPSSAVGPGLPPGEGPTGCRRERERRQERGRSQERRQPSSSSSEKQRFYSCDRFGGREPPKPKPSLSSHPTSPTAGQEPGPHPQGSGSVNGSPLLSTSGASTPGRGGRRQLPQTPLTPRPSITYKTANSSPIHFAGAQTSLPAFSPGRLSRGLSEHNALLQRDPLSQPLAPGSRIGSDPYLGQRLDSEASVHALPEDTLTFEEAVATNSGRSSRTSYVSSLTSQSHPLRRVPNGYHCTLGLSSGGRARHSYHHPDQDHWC
T6 sequence (Q02410 whole entry): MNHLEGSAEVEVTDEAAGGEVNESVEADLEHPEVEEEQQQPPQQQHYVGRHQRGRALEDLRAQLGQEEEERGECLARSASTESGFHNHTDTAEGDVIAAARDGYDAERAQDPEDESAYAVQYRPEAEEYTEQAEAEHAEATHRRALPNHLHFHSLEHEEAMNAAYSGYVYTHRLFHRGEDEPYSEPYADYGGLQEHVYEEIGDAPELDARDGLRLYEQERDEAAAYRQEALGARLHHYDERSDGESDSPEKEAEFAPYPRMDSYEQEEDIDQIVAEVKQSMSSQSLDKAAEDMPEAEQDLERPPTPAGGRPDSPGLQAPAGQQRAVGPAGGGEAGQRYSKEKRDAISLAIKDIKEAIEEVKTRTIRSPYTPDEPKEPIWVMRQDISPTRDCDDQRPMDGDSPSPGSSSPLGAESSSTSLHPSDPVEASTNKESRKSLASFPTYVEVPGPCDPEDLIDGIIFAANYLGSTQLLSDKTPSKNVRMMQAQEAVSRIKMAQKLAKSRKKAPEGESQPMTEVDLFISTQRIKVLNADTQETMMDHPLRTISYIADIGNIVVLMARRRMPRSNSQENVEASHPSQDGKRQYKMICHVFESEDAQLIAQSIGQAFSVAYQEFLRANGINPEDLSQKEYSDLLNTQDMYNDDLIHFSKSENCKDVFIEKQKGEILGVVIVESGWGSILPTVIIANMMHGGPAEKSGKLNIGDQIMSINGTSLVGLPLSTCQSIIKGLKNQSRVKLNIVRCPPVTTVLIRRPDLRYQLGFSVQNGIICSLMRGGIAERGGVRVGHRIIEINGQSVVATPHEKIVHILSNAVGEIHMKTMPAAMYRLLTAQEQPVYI
Chain of DNA dC->dU-editing enzyme APOBEC-3G (Q9HC16 whole entry): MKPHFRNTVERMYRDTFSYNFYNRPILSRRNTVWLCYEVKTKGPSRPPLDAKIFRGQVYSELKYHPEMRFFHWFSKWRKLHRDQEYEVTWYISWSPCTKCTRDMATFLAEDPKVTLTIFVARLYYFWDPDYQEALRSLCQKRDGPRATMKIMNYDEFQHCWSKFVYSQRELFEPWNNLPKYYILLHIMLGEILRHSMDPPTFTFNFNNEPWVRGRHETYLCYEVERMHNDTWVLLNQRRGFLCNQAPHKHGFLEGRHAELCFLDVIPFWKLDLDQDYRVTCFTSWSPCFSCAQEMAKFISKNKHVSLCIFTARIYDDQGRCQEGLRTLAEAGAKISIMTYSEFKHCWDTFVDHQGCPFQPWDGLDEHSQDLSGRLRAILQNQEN
Chain of Cytochrome P450 3A4 (P08684 whole entry): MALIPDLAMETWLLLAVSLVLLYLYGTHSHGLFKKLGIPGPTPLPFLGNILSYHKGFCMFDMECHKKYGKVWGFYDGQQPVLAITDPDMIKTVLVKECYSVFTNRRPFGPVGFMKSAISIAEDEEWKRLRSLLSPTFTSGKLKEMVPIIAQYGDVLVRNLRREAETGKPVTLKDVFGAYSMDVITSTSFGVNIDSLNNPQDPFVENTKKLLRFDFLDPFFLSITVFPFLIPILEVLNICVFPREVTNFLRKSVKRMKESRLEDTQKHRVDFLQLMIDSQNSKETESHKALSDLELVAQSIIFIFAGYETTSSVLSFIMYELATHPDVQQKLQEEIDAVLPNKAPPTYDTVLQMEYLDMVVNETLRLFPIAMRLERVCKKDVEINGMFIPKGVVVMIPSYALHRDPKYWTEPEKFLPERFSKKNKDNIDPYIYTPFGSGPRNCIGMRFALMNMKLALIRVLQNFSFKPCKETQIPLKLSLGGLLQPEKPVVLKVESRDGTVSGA
Chain of DNA dC->dU-editing enzyme APOBEC-3A (P31941 whole entry): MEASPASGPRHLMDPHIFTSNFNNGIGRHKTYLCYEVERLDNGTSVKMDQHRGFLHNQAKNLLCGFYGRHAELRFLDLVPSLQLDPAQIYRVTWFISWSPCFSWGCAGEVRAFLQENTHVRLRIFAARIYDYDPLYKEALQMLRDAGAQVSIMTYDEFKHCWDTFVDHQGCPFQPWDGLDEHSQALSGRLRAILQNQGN
T2 sequence (P98170 whole entry): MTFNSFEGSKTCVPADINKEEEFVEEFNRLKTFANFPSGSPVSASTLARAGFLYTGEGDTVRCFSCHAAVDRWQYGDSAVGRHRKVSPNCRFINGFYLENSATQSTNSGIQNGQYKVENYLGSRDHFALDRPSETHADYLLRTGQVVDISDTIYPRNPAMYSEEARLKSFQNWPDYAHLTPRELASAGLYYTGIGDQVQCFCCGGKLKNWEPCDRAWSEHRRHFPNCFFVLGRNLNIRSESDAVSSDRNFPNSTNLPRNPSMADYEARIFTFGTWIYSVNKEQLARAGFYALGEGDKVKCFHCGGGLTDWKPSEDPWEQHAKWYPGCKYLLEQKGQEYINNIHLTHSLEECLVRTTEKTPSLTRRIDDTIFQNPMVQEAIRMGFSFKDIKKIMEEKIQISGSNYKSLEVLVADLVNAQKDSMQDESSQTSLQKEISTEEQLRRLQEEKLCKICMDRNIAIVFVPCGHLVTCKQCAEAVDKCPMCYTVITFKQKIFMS
Chain of Nonstructural protein 1 (Q194T2 whole entry): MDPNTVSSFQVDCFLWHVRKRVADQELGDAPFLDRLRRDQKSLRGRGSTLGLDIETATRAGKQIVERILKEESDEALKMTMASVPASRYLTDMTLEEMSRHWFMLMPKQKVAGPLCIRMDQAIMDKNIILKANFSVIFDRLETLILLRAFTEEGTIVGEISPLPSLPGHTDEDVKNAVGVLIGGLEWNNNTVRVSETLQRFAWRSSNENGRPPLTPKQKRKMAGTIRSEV

S=C(Nc1ccccc1)c1ccccn1
EC50 [1]: 32.5 µM (active)
IC50 (Beta-galactosidase): > 66.6 µM (inactive)
EC50 [2]: 32.8 µM (active)

CCCn1c(C)nc2c(NC3CCCCC3)nc(C)nc21
AC50 (Cytochrome P450 3A4): 12.6 µM (inconclusive)

O=[N+]([O-])c1ccc2oc(C3CCCCC3)nc2c1
EC50 [3]: > 50 µM (active)

COc1ccc(C2C=C(c3ccc(Br)cc3)Nc3nc(NS(C)(=O)=O)nn32)cc1 (stereo not given)
IC50 (Bcl-2-like protein 10): > 1.56 µM (inactive)

Cc1cc(C)cc(NC(=O)Nc2ccc3c(c2)N(C)C(=O)CS3)c1
IC50 [4]: > 100 µM (inactive)
IC50 [5]: > 100 µM (not active)

c1ccc(C2[C@H]3CN(CC4CCCCC4)[C@H](c4ccccc4)C34CC2(c2ccccc2)C4)cc1 (stereo not given in full)
AC50 (Cytochrome P450 3A4): 5.01 µM (inconclusive)

Cc1ccsc1-c1nnc(S)n1CC(C)C
IC50 [6]: 5.9 µM (active)
IC50 [7]: > 100 µM (inactive)

COC(=O)[C@@H]1C[C@@H]2CC[C@@H](O)C[C@@H]2N1Cc1ccc(N2CCN(C)CC2)cc1
AC50 (Cytochrome P450 3A4): 10 µM (inconclusive)

CSC1=N/C(=C\C=C\c2cccs2)C(=O)S1
IC50 (Nonstructural protein 1): 69.4 µM (active)
EC50 [8]: 853 nM (active)
AC50 [9]: 3.5 µM (active)

N=c1c(S(=O)(=O)c2ccc(Br)cc2)cc2c(=O)n3ccccc3nc2n1Cc1ccco1
IC50 (SUMO-activating enzyme [10]): 4.16 µM (active)
IC50 (SUMO-activating enzyme [11]): 3.92 µM (active)

c1ccc2cc(-c3csnn3)ccc2c1
AC50 [9]: 75.6 µM (active)
AC50 (Cytochrome P450 2C9): 14.1 µM (inconclusive)

CCOc1ccc(NC(=O)c2ccc(NC(=O)c3ccc(CN4CCOCC4)cc3)cc2)cc1
IC50 (SUMO-activating enzyme [10]): 25.1 µM (active)
IC50 [12]: 10.1 µM (active)
IC50 [13]: > 50 µM (inactive)
IC50 (SUMO-activating enzyme [11]): 22.4 µM (active)

Cc1cccc(-c2nc(Nc3ccc(N4CCOCC4)cc3)c3ccccc3n2)c1
EC50 [14]: 1.23 µM (active)
IC50 [15]: > 54 µM (active)
EC50 [16]: > 60 µM (not active)

CCOC(=O)/C=C(\C)Sc1cc(=O)oc2ccccc12
AC50 [9]: 8.71 µM (active)
IC50 [17]: > 80 µM (inactive)
AC50 (HEK293): 12 µM (active)

O=C1C=CC(=O)N1c1ccc(N2CCCCC2)cc1
IC50 [6]: 7.13 µM (active)
AC50 [18]: 554 nM (active)
IC50 (Beta-galactosidase): > 66.6 µM (inactive)
IC50 [12]: 9.34 µM (active)
IC50 [13]: 3.07 µM (active)
IC50 [19]: > 80 µM (inactive)
IC50 [7]: > 100 µM (inactive)

COc1ccc(C(N)=NOC(=O)Cc2ccc(C)cc2)cc1
IC50 [4]: > 100 µM (inactive)
IC50 [5]: > 100 µM (not active)

Oc1ccc(-c2nc3ncccn3c2Nc2ccc3c(c2)OCCO3)cc1
EC50 [3]: > 50 µM (active)

COc1cccc(N2CCN(C3=C(Cl)C(=O)N(c4cccc(OC)c4)C3=O)CC2)c1
IC50 [20]: > 50 µM (inconclusive)

O=C(Cn1sc2ccccc2c1=O)Nc1ccccc1Br
IC50 (Hexokinase): 4.66 µM (active)

COc1ccc(S(=O)(=O)Nc2cc(Cl)ccc2C(=O)O)cc1
IC50 (Hexokinase): > 25 µM (inactive)

CC(C)(C)c1ccc(C(=O)Nc2cc(Cl)c(F)cc2C(=O)O)cc1
IC50 (Hexokinase): 2.79 µM (active)

Cc1cccc(N/N=C/c2ccc(O)c(O)c2O)c1
EC50 [3]: > 50 µM (active)
AC50 [21]: 1.36 µM (active)
IC50 (Genome polyprotein): 32.6 µM (active)

Cc1ccc(/C=N/n2c(S)nnc2-c2ccco2)s1
IC50 [6]: 1.55 µM (active)
IC50 [7]: > 100 µM (inactive)

O=c1ccsn1-c1ccccc1
IC50 (Hexokinase): 13.5 µM (active)

O=S1OCC2C(CO1)C1(Cl)C(Cl)=C(Cl)C2(Cl)C1(Cl)Cl (stereo not given) [ENDOSULFAN]
AC50 (Cytochrome P450 3A4): 2.51 µM (inconclusive)
